Here are results for 35 compounds from the supplement of paper PMC5412046.

Structures can show the parent of a compound that is named as a salt.

For assay [1], the system named is SB.mhdgc-1. The assay can be described thus: viability at highest tested concentration (MAXR) relative to DMSO; higher = less cytotoxic. The conditions noted are these: SB.mhdgc-1 (hereditary c.1380delA CDH1 gastric cancer). Summed up: (§1)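 Hereditary or sporadic patient-derived gastric cancer cells (500 cells in 5 μL medium per 1536 well) received 23 nL compound in DMSO by pintool at 11 threefold-diluted concentrations, with the top concentration recorded per compound. After 48 h, CellTiter-Glo was added for 30 min at room temperature and luminescence read on a ViewLux. Values are DMSO-normalised viability, either at the highest concentration or as trapezoidal area under the curve.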

Assay [2] concerns SB.msgc-1. The assay is described as above. The note with it: SB.msgc-1 (sporadic gastric cancer). Summed up:
as §1

The subject of assay [3] is SB.mhdgc-1. The assay can be described thus: area under the dose-response curve of % viability (trapezoidal, 11 doses) (% viability x log10 concentration); higher = less cytotoxic. The conditions noted are these: SB.mhdgc-1 (hereditary c.1380delA CDH1 gastric cancer). Summed up:
as §1

Assay [4] deals with SB.msgc-1. Described as above. The conditions noted are these: SB.msgc-1 (sporadic gastric cancer). The procedure, abridged:
as §1

For `COc1cccc2c1CCCC2CCCN1CCN(C2CCCCC2)CC1` (stereo not given) [PB-28] (top concentration 46.0829 µM), the viability is 9.75% in assay [1] and 60.2% in assay [2]. The “area under the dose-response curve” value in assay [3] is 482; in assay [4], 529.
For `COc1ccc(-c2c(-c3ccc(O)cc3O)n[nH]c2C)cc1` [PDHK RIKEN] (top concentration 92.1659 µM), the viability in assay [1] is 88.1%; in assay [2], 66.6%. For the same compound, the “area under the dose-response curve” value in assay [3] came to 560; in assay [4], 518.
Taken in the same sequence, the figures for `FC1=CC=C(CN2\C=C/C=C(/C(=O)N[C@@H](COC3=CC4=C(NC(=O)N4)C=C3)C5=CC=CC=C5)C2=O)C=C1F` [PDK1 inhibitor] (top concentration 46.0829 µM) were 60.7%, 44.8%, 469 and 467.
In the same order, the values of `C[C@]1(CO)CN(c2cc(C(=O)Nc3ccc4c(c3)-c3c(c(C(N)=O)nn3-c3ccc(F)cc3)CC4)c(Cl)cn2)C[C@@]1(C)CO` [PF-184] (top concentration 46.0829 µM) are 30.3%, 54.5%, 450 and 496.
For the compound `Cc1cc(C[S+](=O)([O-])c2ccccc2)cc(OCc2ccc(CN3CCC[C@@H]3CO)cc2)c1` [PF-543] (top concentration 46.0829 µM), the viability turned out to be 57.5% in assay [1] and 43% in assay [2]. In addition, the entries for the “area under the dose-response curve” value in assay [3] and in assay [4] were 483 and 488, respectively.
Taken in the same sequence, the figures for `O=C(Nc1cccnc1)N1CCC(Cc2cccc(Oc3ccc(C(F)(F)F)cn3)c2)CC1` [PF-3845] (top concentration 46.0829 µM) were 43%, 44.9%, 470 and 534.
For `O=C(CCN1CCN(C(=O)OCc2cc(Cl)cc(Cl)c2)CC1)c1ccc2[nH]c(=O)oc2c1` [PF-8380] (top concentration 46.0829 µM), the figures for the viability in assay [1] and in assay [2] were 74.2% and 89.4%, respectively. Moreover, the “area under the dose-response curve” value worked out at 517 in assay [3] and 578 in assay [4].
In the same order, the values of `CN1CCN(c2cc(C(=O)Nc3ccc4c(c3)-c3c(c(C(N)=O)nn3-c3ccc(F)cc3)CC4)c(Cl)cn2)CC1` [PHA-408] (top concentration 46.0829 µM) are 2.85%, 18%, 441 and 443.
In the same order, the values of `CCCCCCCCCCCCc1ccc([S+](=O)([O-])Nc2nncs2)cc1` [PHT-427] (top concentration 46.0829 µM) are 78.6%, 96.5%, 512 and 502.
In the same order, the values of `Oc1cccc(-c2nc(N3CCOCC3)c3oc4ncccc4c3n2)c1` [PI-103] (top concentration 92.1659 µM) are 6.8%, 37.9%, 308 and 457.
On to `Cc1ccc([N+](=O)[O-])cc1[S+](=O)([O-])N(C)/N=C/c1cnc2ccc(Br)cn12` [PIK-75] (top concentration 46.0829 µM), for which the figures for the viability in assay [1] and in assay [2] were 30% and 41.7%, respectively. Moreover, the “area under the dose-response curve” value is 348 in assay [3] and 323 in assay [4].
Taken in the same sequence, the figures for `COC1=CC=C2/C3=N/CCN3\C(=N/C2=C1OC)NC(=O)C4=CC=CN=C4` [PIK-90] (top concentration 46.0829 µM) were 27.3%, 40.5%, 415 and 474.
Regarding `CC(=O)Nc1nc(C)c(-c2ccc(Cl)c([S+](=O)([O-])NCCO)c2)s1` [PIK-93] (top concentration 46.0829 µM), the viability in assay [1] was 19.3%; in assay [2], 43%. The “area under the dose-response curve” value in assay [3] was found to be 415; in assay [4] it was 400.
Consider `CC1=C(C=CC=C1)N2\C(=N/C3=C(C(=CC=C3)C)C2=O)C[N]4N=CC5=C4N=CN=C5N` [PIK-293] (top concentration 46.0829 µM), for which the viability in assay [1] is 55.1%; in assay [2], 26.6%. Further, the entries for the “area under the dose-response curve” value in assay [3] and in assay [4] were 377 and 321, respectively.
Taken in the same sequence, the figures for `CCn1nnc2c(N3CCOCC3)nc(-c3ccc(NC(=O)Nc4ccc(C(=O)N5CCN(C)CC5)cc4)cc3)nc21` [PKI-402] (top concentration 46.0829 µM) were 2.9%, 36.7%, 287 and 405.
With `CCC[S+](=O)([O-])Nc1ccc(F)c(C(=O)c2c[nH]c3ncc(Cl)cc23)c1F` [PLX-4720] (top concentration 46.0829 µM), the viability in assay [1] came out at 66.8%; in assay [2], 44.8%. In addition, the “area under the dose-response curve” value in assay [3] was found to be 459; in assay [4], 521.
For the compound `O=[S+]([O-])(F)Cc1ccccc1` [PMSF] (top concentration 46.0829 µM), the viability in assay [1] was found to be 55.5%; in assay [2] it was 93.4%. Further, the “area under the dose-response curve” value worked out at 406 in assay [3] and 489 in assay [4].
`Nc1ncnc2c1c(-c1cnc3[nH]ccc3c1)nn2C1CCCC1` [PP-121] (top concentration 46.0829 µM): the viability came to 7.09% in assay [1] and 17.2% in assay [2]. The “area under the dose-response curve” value in assay [3] turned out to be 361; in assay [4] it was 431.
As for `CC(C)n1nc(-c2cc3cc(O)ccc3[nH]2)c2c(N)ncnc21` [PP-242] (top concentration 46.0829 µM), the viability worked out at 36.9% in assay [1] and 29.3% in assay [2]. The “area under the dose-response curve” value in assay [3] came out at 343; in assay [4], 430.
For `CCc1ccc(C(=O)Nc2cc(CN3CCN(C)CC3)cc(C(F)(F)F)c2)cc1C#Cc1cnc2ccnn2c1` [PRP003-013] (top concentration 46.0829 µM), the viability came out at 3.86% in assay [1] and 0.984% in assay [2]. Further, the figures for the “area under the dose-response curve” value in assay [3] and in assay [4] were 421 and 498, respectively.
Consider `O=C(Nc1cc(Cl)cc2c1[nH]c1cnccc12)c1cccnc1` [PS-1145] (top concentration 46.0829 µM), for which the viability in assay [1] was determined as 36.6%; in assay [2], 54.8%. The “area under the dose-response curve” value in assay [3] came to 442; in assay [4], 508.
In the same order, the values of `O=C(O)c1cccc(-c2noc(-c3ccccc3F)n2)c1` [PTC-124] (top concentration 46.0829 µM) are 114%, 47.4%, 614 and 376.
In the same order, the values of `CCC(C)SSc1ncc[nH]1` (stereo not given) [PX-12] (top concentration 46.0829 µM) are 5.12%, 4.17%, 449 and 486.
In the same order, the values of `CC(=O)O[C@H]1C(=O)[C@]2(C)[C@@H](O)C[C@H]3OC[C@@]3(OC(C)=O)C2[C@H](OC(=O)C4=CC=CC=C4)[C@]5(O)C[C@H](OC(=O)[C@H](O)[C@@H](NC(=O)C6=CC=CC=C6)C7=CC=CC=C7)\C(=C1/C5(C)C)C` (stereo not given in full) [Paclitaxel] (top concentration 46.0829 µM) are 44.1%, 38.5%, 297 and 246.
Take `C[C@@]12C[C@@]3(O)O[C@@H](O1)[C@]1(COC(=O)c4ccccc4)[C@H]3C[C@@]12O[C@@H]1O[C@H](CO)[C@@H](O)[C@H](O)[C@H]1O` [Paeoniflorin] (top concentration 46.0829 µM): the viability worked out at 108% in assay [1] and 114% in assay [2]. Further, the “area under the dose-response curve” value in assay [3] and in assay [4] was 500 in each case.
As for `COc1ccc(C(C)=O)c(O)c1` [Paeonol] (top concentration 46.0829 µM), the viability in assay [1] was determined as 57%; in assay [2], 105%. Further, the results for the “area under the dose-response curve” value in assay [3] and in assay [4] were 545 and 566, respectively.
Take `CC(=O)O[C@H]1C[C@@H]2CC[C@@H]3[C@H](CC[C@@]4(C)[C@H]3C[C@H]([N+]3(C)CCCCC3)[C@@H]4OC(C)=O)[C@@]2(C)C[C@@H]1[N+]1(C)CCCCC1` [Pancuronium bromide] (top concentration 46.0829 µM): the viability in assay [1] was 71.7%; in assay [2] it was 39.2%. The entries for the “area under the dose-response curve” value in assay [3] and in assay [4] were 588 and 499, respectively.
Take `Cc1[nH]c2ccccc2c1CCNCc1ccc(/C=C/C(=O)NO)cc1` [Panobinostat] (top concentration 46.0829 µM): the viability in assay [1] was determined as 22.6%; in assay [2], 7.03%. Further, the “area under the dose-response curve” value in assay [3] was determined as 339; in assay [4], 256.
For `COc1ccnc(C[S+]([O-])c2nc3cc(OC(F)F)ccc3[nH]2)c1OC` (stereo not given) [Pantoprazole] (top concentration 46.0829 µM), the figures for the viability in assay [1] and in assay [2] were 109% and 91.6%, respectively. The results for the “area under the dose-response curve” value in assay [3] and in assay [4] were 509 and 473, respectively.
With `CC(C)(CO)[C@@H](O)C(=O)NCCC(=O)O` [Pantothenic acid] (top concentration 46.0829 µM), the viability was 128% in assay [1] and 106% in assay [2]. For the same compound, the “area under the dose-response curve” value in assay [3] is 490; in assay [4], 494.
In the same order, the values of `COc1ccc(Cc2nccc3cc(OC)c(OC)cc23)cc1OC` [Papaverine hydrochloride] (top concentration 46.0829 µM) are 22.3%, 83.5%, 575 and 536.
Take `CCCCc1ccc2[nH]c(NC(=O)OC)nc2c1` [Parbendazole] (top concentration 46.0829 µM): the viability in assay [1] was determined as 26.2%; in assay [2], 36.5%. The “area under the dose-response curve” value amounted to 399 in assay [3] and 356 in assay [4].
As to `COc1cc(O)c2c(c1)C(=O)c1cc(C)cc(O)c1C2=O` [Parietin] (top concentration 23.0415 µM), the viability came out at 104% in assay [1] and 106% in assay [2]. Besides, the “area under the dose-response curve” value was 551 in assay [3] and 559 in assay [4].
As for `ClC1=CC=C(CCCOC/2=N/NC(=O)C(=C2NCC3=CN=CC=C3)/Br)C=C1` [Parogrelil] (top concentration 46.0829 µM), the figures for the viability in assay [1] and in assay [2] were 3.73% and 12.1%, respectively. Further, the “area under the dose-response curve” value was 504 in assay [3] and 465 in assay [4].
Taken in the same sequence, the figures for `Fc1ccc([C@@H]2CCNC[C@H]2COc2ccc3c(c2)OCO3)cc1` [Paroxetine] (top concentration 46.0829 µM) were 24.9%, 44.6%, 503 and 483.
